Patent publication US20020094522A1, “Means and methods for monitoring non-nucleoside reverse transcriptase inhibitor antiretroviral therapy and guiding therapeutic decisions in the treatment of HIV/AIDS” (priority 2000, published 2002)

How the values were obtained:
[1] = tested on: RTV-1060 (patient sample 98-1060); assay: Phenotypic susceptibility assay, RTV-1060; format: cell-based, HIV-1; settings: RTV-1060, patient-derived pool
Protocol: Transfections were performed using a calcium-phosphate precipitation procedure. […] Cell lysates were assayed for luciferase activity (FIG. 3).
The drug inhibition curves are shown in (FIG. 3).
This patient had been previously treated with d4T […] , indinavir (a PRI and efavirenz (an NNRTI). A second resistance test vector was constructed as described in Example 1 from a patient sample designated 98-1060. This patient had been previously treated with d4T […]. indinavir (a PRI) and efavirnez (an NNRTI). Isolation of viral RNA and RT/PCR was used to generate a patient derived segment that comprised viral sequences coding for all of PR and aa 1-313 of RT. The PDS was inserted into an indicator gene viral vector to generate resistance test vectors designated RTV-644 and RTV-1060. RTV-644 and RTV-1060 were then tested in a phenotypic assay to determine accurately and quantitatively the level of susceptibility to a panel of anti-retroviral drugs. […] An IC50 was determined for the resistance test vector pool for each drug tested. The pattern of susceptiblity to all of the drugs tested was examined and compared to known patterns of susceptibility.

[2] = tested on: V108I -RTV (HIV reverse transcriptase V108I)
Excerpt: (§1) The resistance test vectors containing a functional luciferase gene cassette were constructed and host cells were transfected with the resistance test vector DNA. The resistant test vectors contained patient-derived reverse transcriptase and protease sequences that were either susceptible or resistant to the antiretroviral agents, such as nucleoside reverse transcriptase inhibitors, non-nucleoside reverse transcriptase inhibitors and protease inhibitors. The resistance test vector viral particles produced by transfecting the resistance test vector DNA into host cells, either in the presence or absence of protease inhibitors, were used to infect target host cells grown either in the absence of NRTI or NNRTI or in the presence of increasing concentrations of the drug. The amount of luciferase activity produced in infected target host cells in the presence of drug was compared to the amount of luciferase produced in infected target host cells in the absence of drug. Drug resistance was measured as the amount of drug required to inhibit by 50% the luciferase activity detected in the absence of drug (inhibitory concentration 50%, IC50). The IC50 values were determined by plotting percent drug inhibition vs. log10 drug concentration.
(§2) Host cells were seeded in 10-cm-diameter dishes and were transfected several days after plating with resistance test vector plasmid DNA and the envelope expression vector. Transfections were performed using a calcium-phosphate precipitation procedure. The cell culture media containing the DNA precipitate was replaced with fresh medium, from one to 24 hours, after transfection. Cell culture media containing resistance test vector viral particles was harvested one to four days after transfection and was passed through a […] filter before being stored at −80° C. HIV capsid protein (p24) levels in the harvested cell culture media were determined by an EIA method as described by the manufacturer (SIAC; Frederick, Md.). Before infection, target cells (293 and 293/T) were plated in cell culture media. Control infections were performed using cell culture media from mock transfections (no DNA) or transfections containing the resistance test vector plasmid DNA without the envelope expression plasmid. One to three or more days after infection the media was removed and cell lysis buffer (Promega) was added to each well. […] The inhibitory effect of the drug was determined using the following equation: […]
(§3) where RLUluc [drug] is the relative light unit of luciferase activity in infected cells in the presence of drug and RLUluc is the Relative Light Unit of luciferase activity in infected cells in the absence of drug. IC50 values were obtained from the sigmoidal curves that were generated from the data by plotting the percent inhibition of luciferase activity vs. the log10 drug concentration.

[3] = tested on: Y188C-RTV (HIV reverse transcriptase Y188C)
Excerpt: as §1, §2, §3

[4] = tested on: Y181C-A98G-RTV
Excerpt: as §1, §2, §3

[5] = tested on: A98G-RTV (HIV reverse transcriptase A98G)
Excerpt: as §1, §2, §3

[6] = tested on: Y181I-RTV (HIV reverse transcriptase Y181I)
Excerpt: as §1, §2, §3

[7] = tested on: E138A-RTV (HIV reverse transcriptase E138A); assay: Phenotypic susceptibility assay, E138A-RTV; format: cell-based, HIV-1; settings: site directed mutant
Excerpt: as §1, with “Drug resistance was measured as the amount of drug required to inhibit by 50% the luciferase activity detected in the absence of drug (inhibitory concentration 50%, IC50).” left out
(§4) Host cells were seeded in 10-cm-diameter dishes and were transfected several days after plating with resistance test vector plasmid DNA and the envelope expression vector. […] HIV capsid protein (p24) levels in the harvested cell culture media were determined by an EIA method as described by the manufacturer (SIAC; Frederick, Md.). […] The inhibitory effect of the drug was determined using the following equation: […]
The E138A mutation alone and in combination with Y188L was introduced into resistance test vectors using the megaprimer method for site-directed mutagenesis (Sakar and Sommar, Ibid.). Resistance test vectors containing the E138A mutation (E138A-RTV) or the E138 mutation along with the […] mutation (E138A-Y188L-RTV) were then tested using the phenotypic assay described earlier and the results were compared to those determined using a genetically defined resistance test vector that was wild type at positions 188 and 138.

[8] = tested on: K103N-RTV (HIV reverse transcriptase K103N); assay: Phenotypic susceptibility assay, K103N-RTV; format: cell-based, HIV-1; settings: site directed mutant
Excerpt: as §1
as §4, with “vector. Transfections were performed using a calcium-phosphate precipitation procedure.” for “vector.”
The mutations Y188L, L100I and K103N were introduced alone and in combinationn into resistance test vectors using the mega-primer method for site-directed mutagenesis (Sakar and Sommar, Ibid.). […] We determined the pattern of phenotypic susceptibility to the NNRTIs, delavirdine, nevlrapine and efavirenz, in all 6 vectors.

[9] = tested on: Y181C-F227L-RTV; assay: Phenotypic susceptibility assay, Y181C-F227L-RTV; format: cell-based, HIV-1; settings: values <1 = increased susceptibility
Excerpt: as §1
as §2, with “Md.).” for “Md.). Before infection, target cells (293 and 293/T) were plated in cell culture media. Control infections were performed using cell culture media from mock transfections (no DNA) or transfections containing the resistance test vector plasmid DNA without the envelope expression plasmid. One to three or more days after infection the media was removed and cell lysis buffer (Promega) was added to each well.”

SMILES	fold decrease in susceptibility (IC50) [1]	fold change in susceptibility compared to wild type control RTV [2]	fold loss of susceptibility compared to wild type control RTV [3]	fold loss of susceptibility compared to wild type control RTV [4]	fold loss of susceptibility compared to wild type control RTV [5]	fold loss of susceptibility compared to wild type control RTV [6]	fold change in susceptibility compared to wild type control RTV [7]	fold loss of susceptibility compared to wild type control RTV [8]	fold change in susceptibility compared to wild type control RTV [9]
CC(C)Nc1cccnc1N1CCN(C(=O)c2cc3cc(NS(C)(=O)=O)ccc3[nH]2)CC1 [delavirdine]	1.5 fold	1.3 fold	3 fold	240 fold	3 fold	20 fold	1.6 fold	50 fold	0.89 fold
O=C1Nc2ccc(Cl)cc2[C@@](C#CC2CC2)(C(F)(F)F)O1 [efavirenz]	900 fold	1.7 fold	20 fold	7 fold	3 fold	1.4 fold	1.4 fold	30 fold	0.99 fold
Cc1ccnc2c1NC(=O)c1cccnc1N2C1CC1 [nevirapine]	greater than 800 fold	3 fold	30 fold	greater than 800 fold	8 fold	740 fold	1.3 fold	55 fold	285 fold
